Here are results for three compounds from PMC6132687, “Stem cells are the most sensitive screening tool to identify toxicity of GATA4-targeted novel small-molecule compounds” (Archives of Toxicology, 2018).

Structures are written as SMILES.

The subject of data set [1] is GATA4–NKX2-5 transcriptional synergy. Kind of data set: Luciferase reporter assay of GATA4–NKX2-5 synergistic gene activation in COS-1 cells. Type of data set: cell-based, African green monkey. The settings on record: 24 h treatment, normalized to DMSO. The protocol:
COS-1 cells were used to investigate the compound effects on GATA4–NKX2-5 synergistic gene activation using a luciferase reporter assay (Kinnunen et al. [2015]). Toxicity profiling was carried out in eight cell types: the H9c2 myoblast cell line, NRVCs, CFs, mESCs, MEFs, mESC derivatives from day 5 embryoid bodies (D5EBs), hiPSCs and hiPSC-CMs. All cell cultures were maintained at 37 °C in a humidified atmosphere of 5% carbon dioxide (CO2) and the regular growth medium was used for compound exposures. Cell culture methods and cardiomyocyte differentiation from human pluripotent stem cells are described in Supplementary Information.
The empty expression plasmid MT2 (pMT2) and mouse Gata4 expressing pMT2-Gata4 plasmids were gifts from D. B. Wilson (Department of Pediatrics, St. Louis Children’s Hospital) (Arceci et al. [1993]). The luciferase reporter plasmid pGL3-3xHA containing three Nkx2-5 high-affinity binding sites has been described previously (Kinnunen et al. [2015]). To create mouse Nkx2-5 expressing pMT2-Nkx2-5, the cDNA was cloned from pFLCI-Nkx2-5 (clone D330001C20, Imagenes), which was a kind gift from R. Kerkelä (University of Oulu, Finland), with primers containing the EcoRI restriction site (forward: 5′-[…]-3′ and reverse 5′-[…]-3′) and ligated to pMT2 EcoRI site. The correct clone was identified by digestion with specific restriction enzymes and the sequence was verified by DNA sequencing (DNA Sequencing and Genomics Laboratory, Institute of Biotechnology, University of Helsinki, Finland).
COS-1 cells grown on 96-well plates were transfected with the luciferase reporter plasmid pGL3-3xHA (100 ng/well) and equal amounts of expression vectors pMT2-Gata4 and pMT2-Nkx2-5 (total of 50 ng/well) using Fugene 6 (Promega) at a reagent:DNA ratio of 3:1. Cells transfected with either pMT2, pMT2-Gata4 or pMT2-Nkx2-5 were used to confirm synergistic transactivation of the reporter gene in all experiments. After 6 h of transfection, the cells were treated with compounds or vehicle (0.1% dimethyl sulfoxide, DMSO) and the luminescence was measured 24 h later using Neolite Reporter Gene Assay System (PerkinElmer, Turku, Finland) according to manufacturer’s instructions and Victor2 plate reader (PerkinElmer, Turku, Finland). Each compound was tested in three technical replicates in at least two independent experiments.
A luciferase reporter assay with an artificial promoter containing three high-affinity binding sites for NKX2-5 was used to evaluate the effects of the compounds on GATA4–NKX2-5 transcriptional synergy (Kinnunen et al. [2015]). We have previously shown that while GATA4 alone induces only minimal activation of this promoter, it strongly potentiates NKX2-5-mediated transactivation (Kinnunen et al. [2015]; Välimäki et al. [2017]).
(In general: A reporter such as luciferase makes a cellular process visible.)

In data set [2] the test system is stem cell and progenitor cell viability. Kind of data set: Toxicity classification from MTT screening across cell types. The note with it: based on effects on stem cell and progenitor cell viability. The protocol: The cells were exposed to the test compounds for 24 h and cytotoxicity was quantified with MTT and LDH assays as described previously (Talman et al. [2011]). For the determination of cell membrane integrity, 50 µl of medium from each well was transferred onto a new 96-well plate followed by addition of 50 µl of substrate solution containing 1.3 mM β-nicotinamide adenine dinucleotide, 660 µM iodonitrotetrazolium, 54 mM L(+)-lactic acid, 280 µM phenazine methosulphate and 0.2 M Tris–HCl (pH 8.0). After a 30-min incubation, the reaction was stopped by adding 50 µl of 1 M acetic acid to each well and absorbance was measured at 490 nm using Victor2 plate reader (PerkinElmer, Turku, Finland). Spontaneous LDH release was measured from untreated cells, maximal LDH release from cells lysed with 0.9% Triton X-100 and background absorbance was measured from wells without cells. After background extraction, cytotoxicity was calculated as follows: cytotoxicity (%) = [(sample − spontaneous LDH release)/(maximal LDH release − spontaneous LDH release)] × 100. For quantification of metabolic activity, 3-(4,5-dimethylthiazol-2-yl)-2,5-diphenyltetrazolium bromide (MTT) was added to the cells at a final concentration of 0.5 mg/ml followed by 2 h incubation in cell culture conditions. The medium was then aspirated and formazan crystals were solubilized in DMSO. Absorbance was measured at 550 nm and absorbance at 650 nm was subtracted as background.
When comparing the effects of different compounds within each individual cell type, the compounds can be grouped into two main classes: toxic (3i-1000, 3i-1120, 3i-1148 and 3i-1229) and non-toxic (3i-1047, 3i-1051, 3i-1165, and 3i-1228) compounds. Based on the hiPSC toxicity data, 3i-1148 can be considered as the most toxic compound with an IC50 of 0.30 µM (Fig. 5b).

Consider `CCN(CC)c1ccc(NC(=O)c2ccsc2)cc1` [3i-1051], for which the “effect on GATA4- and NKX2-5-induced gene activation (luciferase reporter activity)” value in data set [1] is recorded as “ineffective”. Further, the “toxicity class (toxic / non-toxic)” value in data set [2] was “non-toxic”.
On the same counts, the results for `CCN(CC)c1ccc(NC(=O)c2c(-n3cccc3)sc(C)c2C)cc1` [3i-1165] are “only a weak effect” and “non-toxic”.
On the same counts, the results for `CCN(CC)c1ccc(NC(=O)c2c(-c3coc(C)n3)noc2C)cc1` [3i-1228] are “ineffective” and “non-toxic”.
